From PubChem BioAssay (NCI)
Where “and” joins values, the source holds several entries; their conditions need not be identical. Identical values can stand only once.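 A five-concentration, 48-hour dose response in 96-well plates underlies each endpoint, interpolated linearly between surrounding concentrations. At the GI50, growth is halved. TGI is the concentration that stops growth completely.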

Tests used:
Test in all cases: DTP human tumour cell line panel, 48 h
[1] = test system: CAKI-1 renal
[2] = test system: COLO 205 colon
[3] = test system: DU-145 prostate
[4] = test system: HL-60(TB) leukemia
[5] = test system: IGROV1 ovarian
[6] = test system: K-562 leukemia
[7] = test system: MDA-MB-231 breast
[8] = test system: NCI-H226 lung
[9] = test system: NCI-H522 lung
[10] = test system: SK-MEL-5 melanoma
[11] = test system: SNB-19 CNS

Structure (SMILES) | TGI [1] | TGI [2] | TGI [3] [µM] | TGI [4] | TGI [5] [µM] | TGI [6] | TGI [7] | TGI [8] | TGI [9] | TGI [10] | TGI [11] | GI50 [3] | GI50 [4] | GI50 [10] | GI50 [11]
O=C1CCc2ccc(O)c(c2)Oc2ccc(cc2)C(Sc2ccccc2)CCO1 (stereo unspecified) | 41.1 µM | 33.1 µM | 46.6 | > 100 µM | 27.6 | 40 µM | 19.2 µM | 30.2 µM | 27.7 µM | 24.8 µM | 39.8 µM |  |  |  | 
CN(C)c1c(C2OC(CO)C(O)C2O)c(=O)c1=O (stereo unspecified) | > 100 µM |  | > 100 |  | > 100 | > 100 µM | > 100 µM | > 100 µM | > 100 µM |  | > 100 µM |  |  |  | 
Cc1ccc2c(=O)cc(-c3ccc(C)s3)[nH]c2n1 | > 100 µM | 2.29 µM | > 55.4 | 0.607 µM | > 50.4 | > 100 µM | > 100 µM | 2.45 µM |  | 3.41 µM | > 100 µM |  |  |  | 
COC(C)(C)/C=C/c1[nH]c2ccccc2c1CC(=O)NCCc1cn(C(c2ccccc2)(c2ccccc2)c2ccccc2)cn1 | > 100 µM | 3.85 µM | > 89.3 | 8.88 µM | > 100 | > 36 µM | 15 µM | 10.9 µM | 14.3 µM | 7.36 µM | > 100 µM |  |  |  | 
COC(=O)CCNC(=O)OCc1ccccc1 | > 100 µM | > 100 µM | > 100 | > 100 µM | > 100 | > 100 µM | > 100 µM | > 100 µM | > 100 µM | > 100 µM | > 100 µM |  |  |  | 
O=C1CC(CC(=O)c2ccc(Br)cc2)C(=O)/C1=C(/O)c1ccc(Br)cc1 (stereo unspecified) | > 100 µM | > 100 µM | > 100 | > 100 µM | > 100 | > 100 µM | > 100 µM | > 100 µM | > 100 µM | > 100 µM | > 100 µM |  |  |  | 
Cc1cccc2sc(-c3ccc(O)cc3)nc12 | 30.5 µM | 28.1 µM | 31.6 | 40.8 µM | 29.2 | > 100 µM | 38.7 µM | 34.6 µM | 31.7 µM | 20.6 µM | 31.8 µM |  |  |  | 
CC(C)(Cl)C(Br)CCC(Br)(CCl)C(Cl)CBr (stereo unspecified) | > 10 µM | > 10 µM | > 10 | > 10 µM | > 10 | > 10 µM | > 10 µM | > 10 µM | > 10 µM | > 10 µM | > 10 µM |  |  |  | 
CCCCCc1c(CCCC)c(=O)[nH]c2nc(NC(=O)CCCC)ccc12 | > 100 µM | > 100 µM |  |  | > 100 | > 100 µM | > 100 µM | > 100 µM | > 100 µM | > 100 µM | > 100 µM |  |  |  | 
CC1=C(O)c2ccccc2C(=O)C1=O | > 100 µM | > 100 µM | > 100 | > 100 µM | > 100 | > 100 µM | > 100 µM | > 100 µM | > 100 µM | > 65.1 µM | > 100 µM |  |  |  | 
COc1ccc(COC(=O)NCC(=O)NC(C)C(=O)NC(Cc2ccccc2)C(=O)OCc2ccccc2)cc1 (stereo unspecified) | 41.5 µM and 65.7 µM | 80.8 µM and 52.9 µM | > 100 | 10.7 µM and 37.8 µM | > 100 | > 100 µM and 52.6 µM | 46.2 µM and 68.3 µM | 55.9 µM and 85.6 µM | 29.3 µM and 31.1 µM | 26.8 µM and > 100 µM | 41.1 µM and > 100 µM | 31.1 µM and > 100 µM | 3.12 µM and 17.7 µM | 13.8 µM and 56.3 µM | 21.5 µM and > 100 µM
CCC1(c2ccc(N3C(=O)c4cc(OC)c(OC)cc4C3=O)cc2)CCC(=O)NC1=O (stereo unspecified) | > 10 µM | > 10 µM | > 10 | > 10 µM | > 10 | > 10 µM | > 10 µM | > 10 µM |  | > 10 µM | > 10 µM |  |  |  | 
COc1ccccc1C(O)[C@@H]1C[C@@H]2[C@H]3CC[C@@](C)([C@@H]2O1)C3(C)C (stereo partly specified) | 56.4 µM | 35.2 µM | 49.6 | 49.1 µM | 31.2 | 52.3 µM | 34.4 µM |  | 38.5 µM | 31.6 µM | 39 µM |  |  |  | 
COc1ccc(N=NC(=O)NC(CC(C)C)C(=O)NCC(=O)O)cc1 (stereo unspecified) | > 100 µM | 24.5 µM | > 100 | > 100 µM | > 100 | > 29.1 µM | > 100 µM | 99 µM | > 100 µM | > 56.2 µM | > 100 µM |  |  |  | 
CCOC(=O)c1c(NC(=S)Nc2ccc(Cl)cc2)sc2c1CCN(C)C2 | > 100 µM | > 100 µM | > 100 | > 100 µM | > 100 | > 100 µM | > 100 µM | > 100 µM |  | > 100 µM | > 100 µM |  |  |  | 
CC(=O)NC(NCCN)(c1ccccc1)c1ccccc1 |  | > 100 µM | > 100 | > 100 µM |  | > 100 µM | > 100 µM | > 100 µM |  | > 100 µM | > 100 µM |  |  |  | 
O=C1Nc2nccnc2C(=O)N2CCC[C@@H]12 | > 100 µM | > 100 µM | > 100 | > 100 µM | > 100 | > 100 µM | > 100 µM | > 100 µM | > 100 µM | > 100 µM | > 100 µM |  |  |  | 
Cc1cc(=O)oc2cc(OCC(O)COC(C)C)ccc12 (stereo unspecified) | > 100 µM | > 100 µM | > 100 | > 100 µM | > 100 | > 100 µM | > 100 µM |  | > 100 µM | > 100 µM | > 100 µM |  |  |  | 
OC(CN(CCCl)CCCl)C(O)C(O)C(O)CN(CCCl)CCCl (stereo unspecified) | > 100 µM | > 100 µM | > 100 | > 100 µM | > 100 | > 100 µM | > 100 µM | > 100 µM | > 100 µM | > 100 µM | > 100 µM |  |  |  | 
Cc1cc2nc3ccccc3n2c2nc(N)ccc12 | > 100 µM | > 100 µM | > 100 | > 100 µM | > 100 | > 100 µM | > 100 µM | 84.9 µM | > 100 µM | 40.2 µM | > 100 µM |  |  |  | 
